Results: PubChem BioAssay AID250 (DTP/NCI, 2004)
“And” between values parts separate entries of the source, which are not always exact repeats. Equal values may be shown once. Toxic doses and inconclusive results are not listed.

Tested on: BDF1 mice, L1210 leukemia sc, survival T/C
Assay: NCI In Vivo Anticancer Drug Screen. Data for tumor model L1210 Leukemia (subcutaneous) in B6D2F1 (BDF1) mice
Conditions: endpoint: median survival time, vehicle: water, higher = longer survival
Method in brief: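 Tumors were transplanted into mice, the animals were treated with compound, survival or tumor size was then measured, and treated values were divided by vehicle-control values.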

In the case of `O=P1(NCCCl)OCCCN1CCCl` (centres undefined), the T/C (dose: 7.8 mg/kg/injection, schedule: Q03HX008 (ip)) is reported as 166 % of control, the T/C (dose: 7.8 mg/kg/injection, schedule: Q03HX008 (sc)) is reported as 111 % of control and the T/C (dose: 15.62 mg/kg/injection, schedule: Q03HX008 (ip)) is reported as 155 % of control. The T/C (dose: 15.62 mg/kg/injection, schedule: Q03HX008 (sc)) was 122 % of control, the T/C (dose: 23.0 mg/kg/injection, schedule: Q03HX008 (sc)) was 178 % of control and the T/C (dose: 31.25 mg/kg/injection, schedule: Q03HX008 (ip)) was 166 % of control. The T/C (dose: 31.25 mg/kg/injection, schedule: Q03HX008 (sc)) was 166 % of control, the T/C (dose: 39.0 mg/kg/injection, schedule: Q01DX009 (sc)) was 168 % of control and the T/C (dose: 39.0 mg/kg/injection, schedule: Q01DX015 (ip)) was 194 % of control and 197 % of control. For the same molecule, the T/C (dose: 39.0 mg/kg/injection, schedule: Q03HX008 (sc)) was 210 % of control, the T/C (dose: 62.5 mg/kg/injection, schedule: Q03HX008 (ip)) was 611 % of control and the T/C (dose: 62.5 mg/kg/injection, schedule: Q03HX008 (sc)) was 611 % of control. For the same molecule, the T/C (dose: 65.0 mg/kg/injection, schedule: Q01DX009 (sc)) was 189 % of control, the T/C (dose: 65.0 mg/kg/injection, schedule: Q01DX015 (ip)) was 236 % of control and the T/C (dose: 65.0 mg/kg/injection, schedule: Q03HX008 (sc)) was 278 % of control. The T/C (dose: 108.0 mg/kg/injection, schedule: Q01DX001 (sc)) was 111 % of control and 114 % of control, the T/C (dose: 108.0 mg/kg/injection, schedule: Q01DX009 (sc)) was 236 % of control and the T/C (dose: 108.0 mg/kg/injection, schedule: Q01DX015 (ip)) was 178 % of control and 187 % of control. For the same molecule, the T/C (dose: 108.0 mg/kg/injection, schedule: Q03HX008 (sc)) was 115 % of control, the T/C (dose: 108.0 mg/kg/injection, schedule: Q07DX003 (ip)) was 210 % of control and 218 % of control and the T/C (dose: 108.0 mg/kg/injection, schedule: Q08DX002 (sc)) was 173 % of control. The T/C (dose: 108.0 mg/kg/injection, schedule: Q09DX003 (sc)) was 154 % of control and 155 % of control, the T/C (dose: 125.0 mg/kg/injection, schedule: Q01DX001 (ip)) was 155 % of control and the T/C (dose: 125.0 mg/kg/injection, schedule: Q01DX001 (sc)) was 150 % of control. For the same molecule, the T/C (dose: 130.0 mg/kg/injection, schedule: Q01DX001 (sc)) was 154 % of control and 157 % of control, the T/C (dose: 130.0 mg/kg/injection, schedule: Q04DX003 (sc)) was 189 % of control and 197 % of control and the T/C (dose: 180.0 mg/kg/injection, schedule: Q01DX001 (ip)) was 183 % of control and 184 % of control. For the same molecule, the T/C (dose: 180.0 mg/kg/injection, schedule: Q01DX015 (ip)) was 156 % of control and 157 % of control, the T/C (dose: 180.0 mg/kg/injection, schedule: Q03HX008 (sc)) was 105 % of control and the T/C (dose: 180.0 mg/kg/injection, schedule: Q07DX003 (ip)) was 252 % of control and 253 % of control. For the same molecule, the T/C (dose: 180.0 mg/kg/injection, schedule: Q08DX002 (sc)) was 215 % of control, the T/C (dose: 180.0 mg/kg/injection, schedule: Q09DX003 (sc)) was 244 % of control and 245 % of control and the T/C (dose: 216.0 mg/kg/injection, schedule: Q01DX001 (sc)) was 184 % of control and 185 % of control. The T/C (dose: 216.0 mg/kg/injection, schedule: Q04DX003 (sc)) was 210 % of control and 216 % of control, the T/C (dose: 250.0 mg/kg/injection, schedule: Q01DX001 (ip)) was 205 % of control and the T/C (dose: 250.0 mg/kg/injection, schedule: Q01DX001 (sc)) was 177 % of control. The T/C (dose: 256.0 mg/kg/injection, schedule: Q01DX001 (sc)) was 192 % of control and 195 % of control, the T/C (dose: 300.0 mg/kg/injection, schedule: Q01DX001 (ip)) was 205 % of control and the T/C (dose: 300.0 mg/kg/injection, schedule: Q01DX009 (sc)) was 157 % of control. For the same molecule, the T/C (dose: 300.0 mg/kg/injection, schedule: Q07DX003 (ip)) was 273 % of control and 279 % of control, the T/C (dose: 300.0 mg/kg/injection, schedule: Q08DX002 (sc)) was 100 % of control and the T/C (dose: 300.0 mg/kg/injection, schedule: Q09DX003 (sc)) was 244 % of control and 247 % of control. For the same molecule, the T/C (dose: 320.0 mg/kg/injection, schedule: Q01DX001 (sc)) was 212 % of control and 220 % of control, the T/C (dose: 360.0 mg/kg/injection, schedule: Q01DX001 (sc)) was 226 % of control and 229 % of control and the T/C (dose: 360.0 mg/kg/injection, schedule: Q04DX003 (sc)) was 242 % of control. For the same molecule, the T/C (dose: 400.0 mg/kg/injection, schedule: Q01DX001 (sc)) was 235 % of control and 249 % of control, the T/C (dose: 500.0 mg/kg/injection, schedule: Q01DX001 (ip)) was 242 % of control and the T/C (dose: 500.0 mg/kg/injection, schedule: Q08DX002 (sc)) was 121 % of control. The T/C (dose: 500.0 mg/kg/injection, schedule: Q09DX003 (sc)) was 116 % of control and 122 % of control, the T/C (dose: 600.0 mg/kg/injection, schedule: Q01DX001 (sc)) was 77 % of control and the T/C (dose: 600.0 mg/kg/injection, schedule: Q04DX003 (sc)) was 115 % of control and 117 % of control. For the same molecule, the T/C (dose: 625.0 mg/kg/injection, schedule: Q01DX001 (sc)) was 124 % of control, the T/C (dose: 833.0 mg/kg/injection, schedule: Q01DX001 (ip)) was 71 % of control and the T/C (dose: 1000.0 mg/kg/injection, schedule: Q01DX001 (sc)) was 63 % of control.
